{
  "source": "patent US20260102407A1",
  "about": "“TREATMENT METHODS” (priority 2020, published 2026)",
  "key": {"[1]": {"system": "VEGF-A165", "test": "Immunohistochemical staining of rat retina, VEGF-A165", "format": "in vivo", "text": "Rat choroidal laser injury model. Male Brown Norway pigmented rats (8-14 week-old) were anesthetized by an intramuscular injection of Rompun® (xylazine)/Imalgene® (ketamine). Pupils were dilated by instillation of one drop of 0.5% tropicamide before laser burn. Six burns were created in both eyes on Day 0 by applying 170 mW of 532 nm laser light (Viridis laser, Quantel, France) on 75 μm spots around the optic nerve, between the main retinal vessel branches, for 0.1s, through the slit lamp and contact lens. Production of a bubble at the time of laser application confirmed the rupture of Bruch's membrane. […] After anaesthesia, 10% sodium fluorescein (250 μl/100 g body weight) was injected subcutaneously, and ocular fluorescence was recorded 10 min after dye injection. Fluorescein leakage was evaluated on Days 14 and 21 in the angiograms by two examiners masked to the study groups and graded for fluorescein intensity as follows: score 0: no leakage; 1: slightly stained; 2: moderately stained; 3: strongly stained.\nImmunohistochemical staining of rat retina. […] IOD of positive staining (red chromogen) was assessed for CD31, VEGF-A165, pERK, FosB and VCAM-1 using Image-Pro Plus software (Cybernetics, Bethesda, MD). IOD in IPL and INL was quantified for CD31; OPL to OS for VEGF-A165; INL to ONL for pERK; GCL to OS for FosB; OLM for VCAM-1, using Image-Pro Plus. […]"}, "[2]": {"system": "THP-1 adhesion to HMEC", "test": "Endothelial-monocytic cell adhesion assay", "format": "cell-based, human", "settings": "20 ng/ml IL-1β, calcein-labeled THP-1", "description": "Endothelial-monocytic cell adhesion assay. HMEC (80-90% confluency) in 96-well plates were deprived of serum for 24 h and treated with compound at indicated concentrations for 1 h then incubated with IL-1β (20 ng/ml) for 4 h. Meanwhile THP-1 were labeled with 5 μM calcein (5×10^6 cells/ml, BD Bioscience) for 30 min at 37° C. followed by washing 3 times with PBS. THP-1 (2.5×10^5 cells/well) were then added for 30 min, unbound cells were washed off 3 times in PBS. Adhesion of calcein-labeled THP-1 to the endothelium layer was determined in a fluorescent plate reader at excitation 485 nm and emission 530 nm."}, "[3]": {"system": "HMEC-1", "test": "Endothelial proliferation assay using the Countess system with Trypan Blue exclusion", "format": "cell-based, human", "settings": "5% FBS, 0.1-0.6 μM, 24 h", "description": "Endothelial proliferation assay using the Countess system. HMEC-1 proliferation was assessed using a Countess II Automated Cell Counter (ThermoFisher Scientific). Briefly, HMEC-1 (3×10^5 cells/well) were seeded in a 12-well plate. Cells were serum-deprived for 24 h in MCDB131 medium which contained 10 ng/ml EGF and 1 μg/ml hydrocortisone then treated with compound (0.1-0.6 μM) in medium containing 5% FBS, 10 ng/ml EGF and 1 μg/ml hydrocortisone. The cells were trypsinized after 24 h, resuspended in complete medium, a 10 μl aliquot was combined with an equal volume of […], and total cell numbers and Trypan Blue-excluding cells as a proportion of total was determined using the Countess."}},
  "data": [
    {"smiles": "CCOC(=O)Nc1ccc2c(c1)C(=O)N(CC)c1ccccc1O2", "note": "[BT2, (10-ethyl-11-oxo-10,11-dihydro-dibenzo[b,f][1,4]oxazepin-2-yl)-carbamic acid ethyl ester]", "values": [
      {"measurement": "inducible expression of VEGF-A165 in retina", "setting": "[1]; lasered rat eyes 21 days after injury", "value": "inhibited the inducible expression of VEGF-A165"},
      {"measurement": "VEGF-A165 staining gradient relative to the wound", "setting": "[1]; lasered rat eyes, 100 μm boxed increments", "value": "inhibited by BT2"},
      {"measurement": "THP-1 adhesion to IL-1β-treated endothelial cells", "setting": "[2]", "value": "inhibited by BT2"},
      {"measurement": "Trypan Blue incorporation (% living cells)", "setting": "[3]", "value": "without affecting Trypan Blue incorporation"},
      {"measurement": "serum-inducible proliferation, total cell numbers (Countess)", "setting": "[3]", "value": "inhibited serum-inducible proliferation"}
    ]}
  ]
}
